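Interpolation was linear, between the two tested concentrations surrounding the appropriate level; five concentrations were tested over 48 hours in 96-well plates. TGI: total growth inhibition.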

Here are results for twelve compounds from PubChem BioAssay (NCI).

Test systems include SK-MEL-2 melanoma; MDA-MB-435; MALME-3M melanoma; MOLT-4 leukemia; SK-MEL-5 melanoma; EKVX NSCLC; HCT-15 colon; NCI-H460 lung; MDA-N; PC-3 prostate; OVCAR-3 ovarian; ACHN renal; TK-10 renal; HOP-92 NSCLC; MCF7 breast; UACC-62 melanoma; NCI-H522 lung; M14 melanoma.
Holding throughout (experiment): NCI anticancer screen, dose series, 48 h

As for `COC(=O)C(Cc1c(C2Nc3ccccc3C2CC(NC(=O)CNC(C)=O)C(=O)OC)[nH]c2ccccc12)NC(=O)CNC(C)=O` (stereo unspecified), the TGI with SK-MEL-2 melanoma, in the experiment on MDA-MB-435, with MALME-3M melanoma, with MOLT-4 leukemia, in the experiment on SK-MEL-5 melanoma and with EKVX NSCLC was > 100 µM throughout. The TGI in the experiment with HCT-15 colon, in the experiment with NCI-H460 lung, in the experiment on MDA-N, with PC-3 prostate, in the experiment on OVCAR-3 ovarian and in the experiment on ACHN renal was > 100 µM each time. For the same compound, the TGI with TK-10 renal, in the experiment on HOP-92 NSCLC, in the experiment on MCF7 breast, in the experiment on UACC-62 melanoma, in the experiment on NCI-H522 lung and with M14 melanoma was > 100 µM each time.
With `Cc1[nH]c2c(c1C)S(=O)(=O)c1cc3ccccc3nc1N2`, the TGI with SK-MEL-2 melanoma was > 100 µM; with MDA-MB-435, > 100 µM; in the experiment with MALME-3M melanoma, 45.2 µM; in the experiment with MOLT-4 leukemia, > 100 µM; in the experiment with SK-MEL-5 melanoma it was 28.8 µM; in the experiment with EKVX NSCLC it was > 100 µM. Besides, the TGI is > 100 µM with HCT-15 colon; > 100 µM with NCI-H460 lung; 39.4 µM with MDA-N; > 100 µM in the experiment on PC-3 prostate; 45.2 µM in the experiment with OVCAR-3 ovarian; > 100 µM in the experiment on ACHN renal. For the same compound, the TGI is > 100 µM with TK-10 renal; > 100 µM with HOP-92 NSCLC; > 100 µM with MCF7 breast; > 100 µM in the experiment with UACC-62 melanoma; 52 µM in the experiment on NCI-H522 lung; 62.5 µM in the experiment on M14 melanoma.
With `COc1ccc2nc3c([N+](=O)[O-])ccc4c3c(c2c1)NCCN4CCO`, the TGI with SK-MEL-2 melanoma worked out at 1.87 µM; in the experiment on MDA-MB-435 it was 1.79 µM; with MALME-3M melanoma it was 1.45 µM; in the experiment on MOLT-4 leukemia, 0.806 µM; in the experiment with SK-MEL-5 melanoma, 1.15 µM; in the experiment on EKVX NSCLC, 2.97 µM. The TGI with HCT-15 colon worked out at 2.68 µM; in the experiment on NCI-H460 lung it was 1.18 µM; with MDA-N, 1.64 µM; in the experiment with PC-3 prostate it was 1.56 µM; in the experiment with OVCAR-3 ovarian it was 2.91 µM; with ACHN renal, 2.25 µM. In addition, the TGI in the experiment with TK-10 renal amounted to 4.51 µM; with HOP-92 NSCLC, 1.59 µM; in the experiment with MCF7 breast, 3.19 µM; in the experiment on UACC-62 melanoma, 1.07 µM; in the experiment on NCI-H522 lung it was 1.24 µM; in the experiment with M14 melanoma it was 1.78 µM.
Regarding `CC[C@]12C=CCN3CC[C@@]4(c5cc(Br)c(OC)cc5N(C)[C@H]4[C@@](O)(C(=O)NN)[C@@H]1O)[C@@H]32`, the TGI was 70.6 µM with SK-MEL-2 melanoma; > 100 µM in the experiment on MDA-MB-435; > 100 µM in the experiment on MALME-3M melanoma; > 100 µM with MOLT-4 leukemia; > 100 µM in the experiment with SK-MEL-5 melanoma; > 100 µM in the experiment with EKVX NSCLC. The TGI in the experiment on HCT-15 colon, in the experiment with NCI-H460 lung, with MDA-N, in the experiment with PC-3 prostate, with OVCAR-3 ovarian and with ACHN renal was > 100 µM each time. Further, the TGI with TK-10 renal, in the experiment with HOP-92 NSCLC, in the experiment with MCF7 breast, with UACC-62 melanoma, in the experiment with NCI-H522 lung and in the experiment with M14 melanoma was > 100 µM in each case.
With `N#CCc1n[nH]c(Cc2ccccc2)n1`, the TGI in the experiment with SK-MEL-2 melanoma, with MDA-MB-435, in the experiment with MALME-3M melanoma, in the experiment on MOLT-4 leukemia, with SK-MEL-5 melanoma and in the experiment with EKVX NSCLC was > 100 µM each time. Further, the TGI with HCT-15 colon, with NCI-H460 lung, with MDA-N, in the experiment with PC-3 prostate, with OVCAR-3 ovarian and in the experiment with ACHN renal was > 100 µM in each case. For the same compound, the TGI with TK-10 renal, in the experiment on HOP-92 NSCLC, with MCF7 breast, in the experiment on UACC-62 melanoma, in the experiment with NCI-H522 lung and in the experiment on M14 melanoma was > 100 µM throughout.
Regarding `COC(=O)[C@]1(c2cc3ccccc3n2S(=O)(=O)c2ccccc2)CC2CN(C(C)=O)C1CC2=O` (stereo partly specified), the TGI in the experiment with SK-MEL-2 melanoma is 7.52 µM; with MDA-MB-435 it was 6.32 µM; in the experiment with MALME-3M melanoma it was 6.69 µM; in the experiment on MOLT-4 leukemia it was 4.85 µM; in the experiment with SK-MEL-5 melanoma, 14 µM; in the experiment on EKVX NSCLC, 6.17 µM. Besides, the TGI in the experiment with HCT-15 colon came to 9.06 µM; with NCI-H460 lung, 10.9 µM; in the experiment on MDA-N it was 9.32 µM; with PC-3 prostate, 3.83 µM; in the experiment on OVCAR-3 ovarian it was 6.03 µM; in the experiment with ACHN renal, 3.97 µM. Also, the TGI amounted to 23.4 µM in the experiment on TK-10 renal; 16.5 µM with HOP-92 NSCLC; 3.37 µM with MCF7 breast; 3.27 µM in the experiment on UACC-62 melanoma; 4.62 µM in the experiment on NCI-H522 lung; 4.63 µM in the experiment on M14 melanoma.
For `CC(=O)OCCCOCn1c(Cc2ccccc2)c(C)c(=O)[nH]c1=O`, the TGI with SK-MEL-2 melanoma, in the experiment on MDA-MB-435, in the experiment with MALME-3M melanoma, in the experiment on MOLT-4 leukemia, in the experiment on SK-MEL-5 melanoma and in the experiment on EKVX NSCLC was > 100 µM each time. The TGI in the experiment with HCT-15 colon, with NCI-H460 lung, with MDA-N, in the experiment on PC-3 prostate, in the experiment on OVCAR-3 ovarian and with ACHN renal was > 100 µM in each case. Moreover, the TGI in the experiment with TK-10 renal, in the experiment on HOP-92 NSCLC, in the experiment with MCF7 breast, with UACC-62 melanoma, in the experiment with NCI-H522 lung and with M14 melanoma was > 100 µM in each case.
Take `CCCCC(C#N)(OP1(=O)OC(c2ccccc2)C(C)N1C)c1ccccc1` (stereo unspecified): the TGI in the experiment on SK-MEL-2 melanoma was found to be 34.2 µM; in the experiment with MDA-MB-435 it was 33.2 µM; in the experiment on MALME-3M melanoma, 30.6 µM; with MOLT-4 leukemia it was 35.9 µM; in the experiment on SK-MEL-5 melanoma it was 34.2 µM; with EKVX NSCLC it was 39.8 µM. Further, the TGI was 54.8 µM in the experiment on HCT-15 colon; 31 µM in the experiment with NCI-H460 lung; 31.3 µM in the experiment on MDA-N; 32.7 µM with PC-3 prostate; 31 µM in the experiment with OVCAR-3 ovarian; 37.5 µM in the experiment with ACHN renal. The TGI in the experiment on TK-10 renal turned out to be 37.1 µM; in the experiment on HOP-92 NSCLC, 25.8 µM; with MCF7 breast it was 39 µM; with UACC-62 melanoma, 29.4 µM; in the experiment on NCI-H522 lung, 33.7 µM; with M14 melanoma it was 38.3 µM.
In the case of `COC(=O)CCC(=O)NC1=C(Nc2ccc(OC)cc2)C(=O)c2ccccc2C1=O`, the TGI is 20.1 µM in the experiment on SK-MEL-2 melanoma; 3.53 µM with MDA-MB-435; 4.69 µM in the experiment with MALME-3M melanoma; 65.8 µM in the experiment on MOLT-4 leukemia; 3.57 µM with SK-MEL-5 melanoma; 38.3 µM with EKVX NSCLC. Besides, the TGI in the experiment with HCT-15 colon was 21.4 µM; in the experiment with NCI-H460 lung, 21.1 µM; in the experiment with MDA-N, 3.44 µM; with PC-3 prostate, > 92.2 µM; in the experiment with OVCAR-3 ovarian, 12.6 µM; in the experiment with ACHN renal, 54.5 µM. In addition, the TGI with TK-10 renal worked out at 85.3 µM; in the experiment on HOP-92 NSCLC, 27 µM; in the experiment with MCF7 breast it was 18.8 µM; in the experiment on UACC-62 melanoma, 7.67 µM; in the experiment on NCI-H522 lung, 24.3 µM; in the experiment on M14 melanoma, 19.7 µM.
Regarding `COC(=O)c1c(O)ccc2c1c1c(n2Cc2ccccc2Cl)C(=O)c2ccccc2C1=O`, the TGI with SK-MEL-2 melanoma was 33.8 µM; in the experiment on MDA-MB-435, 25.2 µM; in the experiment on MALME-3M melanoma, 31.4 µM; in the experiment on MOLT-4 leukemia, 56.1 µM; in the experiment on SK-MEL-5 melanoma, 26.4 µM; in the experiment on EKVX NSCLC it was 32.5 µM. In addition, the TGI in the experiment with HCT-15 colon came to 31.8 µM; in the experiment with NCI-H460 lung, 23.5 µM; with MDA-N, 31.1 µM; in the experiment on PC-3 prostate, 26.3 µM; in the experiment with OVCAR-3 ovarian, 21.8 µM; in the experiment on ACHN renal, 36.7 µM. The TGI was determined as 30.6 µM with TK-10 renal; 29.8 µM in the experiment on HOP-92 NSCLC; 32.4 µM with MCF7 breast; 30.2 µM with UACC-62 melanoma; 25.5 µM in the experiment with NCI-H522 lung; 34 µM in the experiment with M14 melanoma.
Consider `COC(=O)C1C/C(=C/N(C)C)C(=S)N1` (stereo unspecified), for which the TGI with SK-MEL-2 melanoma, in the experiment with MDA-MB-435, with MALME-3M melanoma, in the experiment with MOLT-4 leukemia, in the experiment with SK-MEL-5 melanoma and in the experiment with EKVX NSCLC was > 100 µM throughout. Further, the TGI with HCT-15 colon is > 100 µM; in the experiment on NCI-H460 lung, 35.4 µM; with MDA-N, > 100 µM; in the experiment on PC-3 prostate it was > 100 µM; with OVCAR-3 ovarian it was > 100 µM; with ACHN renal, > 100 µM. The TGI in the experiment on TK-10 renal, in the experiment with HOP-92 NSCLC, in the experiment on MCF7 breast, in the experiment on UACC-62 melanoma, with NCI-H522 lung and with M14 melanoma was > 100 µM each time.
As to `C[C@H](CCC(=O)NCCS(=O)(=O)O)[C@H]1CC[C@H]2[C@@H]3CC[C@@H]4C[C@H](O)CC[C@]4(C)[C@H]3CC[C@]12C`, the TGI in the experiment on SK-MEL-2 melanoma, in the experiment on MDA-MB-435, in the experiment with MALME-3M melanoma, in the experiment on MOLT-4 leukemia, in the experiment with SK-MEL-5 melanoma and in the experiment on EKVX NSCLC was > 100 µM throughout. Also, the TGI with HCT-15 colon, in the experiment with NCI-H460 lung, with MDA-N, with PC-3 prostate, in the experiment on OVCAR-3 ovarian and in the experiment on ACHN renal was > 100 µM in each case. The TGI with TK-10 renal, in the experiment with HOP-92 NSCLC, in the experiment on MCF7 breast, in the experiment with UACC-62 melanoma, with NCI-H522 lung and in the experiment on M14 melanoma was > 100 µM throughout.
